Test results reported in patent US12383539B2 (Cavion, Inc., priority 2018, dated 2025).
“And” between values parts separate entries of the source, which are not always exact repeats. Equal values may be shown once. Read-outs that look alike come from different tables or passages of the source.

Assays:
[1] = type: in vivo; conditions: dog NOAEL 30 mg/kg, human 10 mg BID
[2] = type: in vivo; conditions: rat NOAEL 300 mg/kg, human 10 mg BID
[3] = Clinical PK crossover study of IR, MR1 and MR2 capsules, single 8 mg dose; type: in vivo, human
Text: Subjects will be screened for study eligibility within 28 days before administration of the first dose of study drug. Subjects who meet the study eligibility criteria will be admitted to the clinical research unit in the afternoon of the day before administration of the first dose of study drug (Period 1/Day −1).
Treatments A, B, and C will be separated by a minimum 7-day washout period. […] Administration of Treatment D may be separated from administration of Treatments A, B, and C by approximately 4 weeks to allow for analysis of the bioanalytical samples from the first 3 treatments.
A single dose, crossover clinical trial was conducted in 15 subjects ranging in age from 35-75 years.

[4] = following a single 8 mg dose of IR CX-8998
[5] = following a single 8 mg dose of MR1 CX-8998
[6] = following a single 8 mg dose of MR2 CX-8998

## C=C(C)c1ccc(CC(=O)N[C@H](C)c2ccc(OCC(F)(F)F)cn2)cc1 [M01]
[1]; Day 90, female
  total safety margin, AUC24hr: 5.6 fold
  total safety margin, Css (animal Cmax / human estimated Css at steady state): 8 fold and 8.0 fold
[1]; Day 90, male
  total safety margin, AUC24hr: 6.5 fold
  total safety margin, Css (animal Cmax / human estimated Css at steady state): 10 fold
[2]; Day 90, female
  total safety margin, AUC24hr: 13 fold
  total safety margin, Css (animal Cmax / human estimated Css at steady state): 21 fold
[2]; Day 90, male
  total safety margin, AUC24hr: 6.8 fold
  total safety margin, Css (animal Cmax / human estimated Css at steady state): 13 fold
[3]; [4]
  AUC72hr Ratio (metabolite to CX-8998): 0.92
  Cmax Ratio (metabolite to CX-8998): 0.14
[3]; [5]
  AUC72hr Ratio (metabolite to CX-8998): 0.95
  Cmax Ratio (metabolite to CX-8998): 0.27
[3]; [6]
  AUC72hr Ratio (metabolite to CX-8998): 0.90
  Cmax Ratio (metabolite to CX-8998): 0.35
